Tests used:
3T3L1 adipocytes = assay: Insulin-stimulated 2-deoxyglucose uptake in 3T3L1 adipocytes; type: cell-based, mouse; set-up: inhibitory effects of LPS on insulin-stimulated glucose uptake / direct effect on insulin-stimulated or basal transport: dose or concentration left out as unconfirmed
Method: Cell culture and transfection. 3T3-L1 fibroblasts (American Type Culture Collection) were cultured and differentiated as described previously [Reed & Lane, Proc Natl Acad Sci USA. 1980 January; 77(1):285-9, herein incorporated by reference]. Cells were routinely used within 7 days upon completion of the differentiation process, with only cultures in which >95% of cells displaying adipocyte morphology being used. CHO-IR and COS-1 cells were maintained in Dulbecco modified Eagle medium (Gibco) containing 10% foetal bovine serum. CHO-IR and 3T3-L1 cells were routinely transfected with plasmids and siRNA by electroporation as described previously (Inoue, M., et al., (2006) Mol. Biol. Cell 17, 2303, Baumann, et al., (2000) Nature 407, 202, both of which are herein incorporated by reference). Cos-1 cells were transfected using FuGene6 (Roche Diagnostics) in accordance with the manufacturer's protocol.
Glucose uptake analysis. 3T3-L1 adipocytes grown in 12-well plates were subjected to a glucose uptake assay as described previously [Van den Berghe et al., Mol Cell Biol. 1994 April; 14(4):2372-7, herein incorporated by reference] using 0.075 uCi/well 2-deoxy-D-[^14C]glucose (GE Health). Samples were counted in an LS6500 Multi-Purpose Scintillation Counter (Beckman Coulter) using BCS Biodegradable Counting Scintillant (GE Health).

[1] = target: human insulin receptor Ser^1035Ala mutant (UniProt P06213)

| Compound | direct effect on insulin-stimulated or basal transport (3T3L1 adipocytes; 3T3L1 adipocytes) | LPS decreases in insulin stimulated glucose uptake (3T3L1 adipocytes; 3T3L1 adipocytes treated with 50 nM inhibitor prior to LPS and insulin (FIG. 6b)) | inhibitory effects of LPS on insulin-stimulated glucose uptake (3T3L1 adipocytes; 3T3L1 adipocytes treated, then LPS, followed by insulin) | incorporation of radioactive phosphate into the receptor [1] |
| --- | --- | --- | --- | --- |
| COc1cc2ncn(-c3cc(OCc4ccccc4S(C)(=O)=O)c(C#N)s3)c2cc1OC [5-(5,6-Dimethoxy-1H-benzimidazol-1-yl)-3-[[2-(methylsulfonyl)phenyl]methoxy]-2-thiophenecarbonitrile] | little direct effect | prevents | prevented | – |
| wild-type IKKi (ectopically expressed, Example 1) | – | – | – | the Ser^1035Ala substitution blocked the incorporation of radioactive phosphate relative to the wild-type receptor when co-expressed with IKKi |

Source: US20090304714A1, “IKKi Inhibitor Therapies and Screening Methods, and Related IKKi Diagnostics” (The Regents of the University of Michigan, priority 2008, published 2009)
